In brackets after ≈: the same amount, converted by molar mass. Several values for one entry are separate records, joined by “and”; a condition that tells them apart may be missing. Equal entries are not always repeated.

Holding throughout (format): cell-based
The test system of one series is HCT116 p53 +/+. Description: MTT cytotoxicity assay, HCT116 p53 +/+. To be noted: replicate values. Here is the method: (§1) IC50 was determined using an MTT assay.
The subject of another series is MDA-MB 435. Description: MTT cytotoxicity assay, MDA-MB 435. The procedure: For example, compound 1-[5-chloro-2-(4-methoxy-phenyl)-3-trifluoromethyl-indol-1-yl]-ethanone, prepared under Example 2 of the present application, has shown potential anticancer activity against several cancer cell lines.
as §1

For a further series, the system named is H29. Description: MTT cytotoxicity assay, H29. To be noted: replicate values. The procedure:
as §1

Another series concerns HCT116 p53 −/−. Description: MTT cytotoxicity assay, HCT116 p53 -/-. To be noted: replicate values. Here is the method:
as §1

Another series concerns MCF7. Description: MTT cytotoxicity assay, MCF7. To be noted: replicate values. The procedure:
as §1

Another series has as its system Skov-3. Description: MTT cytotoxicity assay, Skov-3. To be noted: replicate values. Here is the method: as §1
Where [1] appears, read: Homo sapiens, HCT-116, MTT assay.

Regarding `COc1ccc(-c2c(C(F)(F)F)c3cc(Cl)ccc3n2C(C)=O)cc1` [Example 2, 1-[5-chloro-2-(4-methoxy-phenyl)-3-trifluoromethyl-indol-1-yl]-ethanone], the IC50 in the series with HCT116 p53 +/+ (setting [1]) came out at 14.5 µg/mL (≈ 39.4 µM); in the series on MDA-MB 435 (Homo sapiens, MDA-MB-435, MTT assay, replicate values), 11.1 µg/mL (≈ 30.2 µM); in the series on H29, 9.6 µg/mL (≈ 26.1 µM); in the series on HCT116 p53 −/− (setting [1]), 13.2 µg/mL (≈ 35.9 µM); in the series on MCF7 (Homo sapiens, MCF7, MTT assay), 18.8 µg/mL (≈ 51.1 µM); in the series with Skov-3 (Homo sapiens, SK-OV-3, MTT assay) it was 15.8 µg/mL (≈ 43 µM). The “IC50 HCT116 p53 +/+” value in the series with HCT116 p53 +/+ (MTT assay) came to 15.4 µg/mL (≈ 41.9 µM). The “cytotoxicity against the MDA MB-435 cell line” value in the series on MDA-MB 435 (10 micromolar (μM) concentration, MTT assay) is listed as 80.8%. The “IC50 MDA-MB 435” value in the series on MDA-MB 435 (MTT assay, replicate values) was 8.5 µg/mL and 7.4 µg/mL and 9.6 µg/mL. The “IC50 H29” value with H29 came to 9.8 µg/mL (≈ 26.6 µM). The “IC50 HCT116 p53 −/−” value in the series on HCT116 p53 −/− (MTT assay) is 8.4 µg/mL and 9.4 µg/mL and 9.2 µg/mL. Besides, the “IC50 MCF7” value with MCF7 (MTT assay) was found to be 18 µg/mL (≈ 48.9 µM). Besides, the “IC50 Skov-3” value in the series on Skov-3 (MTT assay) is 17.2 µg/mL (≈ 46.8 µM).

Values taken from patent US20090247766A1, “Substituted Nitrogen Heterocycles and Synthesis and Uses Thereof” (University of Southern California, priority 2008, published 2009).
